According to patent US20190297888A1, “FUNGICIDAL COMPOUNDS AND MIXTURES FOR FUNGAL CONTROL IN CEREALS” (Dow AgroSciences LLC, priority 2016, published 2019):

Tests used:
Assay type in all cases: in vivo
[1] = tested on: Zymoseptoria tritici (SEPTTR); experiment: Field assessment of Compound I and fluxapyroxad on leaf blotch of wheat (AUDPC % control); settings: AUDPC-based, 2 field trials
Description: Treatments consisting of the compound of Formula I and fungicide compound fluxapyroxad against fungal diseases of wheat were applied either using individually or as a two-way mixture of fluxapyroxad with the compound of Formula I. The compound of Formula I was applied with Agnique BP-420 (50% w/w at 0.3% v/v) at 50, 75 and 100 g ai/ha and Imtrex (Fluxapyroxad 62.5 g/L) was applied at 50, 75 and 100 g ai/ha. Commercial standards used in the studies were Adexar (epoxiconazole+fluxapyroxad—125 g/L), applied at 1.2 and 1.6 L pr/ha, and Elatus Era (benzovindiflupyr+prothioconazole—225 g/L), applied at 1.0 L pr/ha.
Fungicidal treatments containing the compound of Formula I and fluxapyroxad, either individually or as a two-way mixture, were assessed against leaf spot of wheat (SEPTTR) in two separate field trials. In the first trial, fungicidal treatments were applied at B32 (curative, 12% infection at application on L4) growth stage of winter wheat (TRZAW, TOBAK variety). The treatments were part of an experimental trial designed as a randomized complete block with four replications and a plot of approximately 2×2 m. Treatments were applied at water volume of 200 L/ha, using a backpack plot sprayer (BCYAIR, FLATFANA nozzle) and pressurized at 220 kPa.
In the second trial, fungicidal treatments were applied at B33-39 (curative, 50% infection at application on L5) growth stages of winter wheat (TRZAW, Consort variety). The treatments were part of an experimental trial designed as a randomized complete block with four replications and a plot of approximately 1.5×14 m. Treatments were applied at water volume of 200 L/ha, using a backpack plot sprayer (BKPCKAIR, Flat fan nozzle) and pressurized at 210 kPa.
Disease severity (percentage of visual diseased foliage on whole plot or leaves) in both field trials was recorded following EPPO PP1/26 guideline prescriptions. Area under the disease progress curve (AUDPC) was calculated for each plot in both trials using the sets of recorded severity data. Relative AUDPC (% control based on AUDPC) was calculated as percent of the nontreated control. Final results for the control of leaf spot of wheat by the compound of Formula I, fluxapyroxad and mixtures are reported as an average of the relative AUDPC calculated over both field trials. Statistical analysis was done according to ANOVA and Tukey's test (p=0.10).

[2] = tested on: Rhyncosporium secalis (RHYNSE); experiment: Field assessment of Compound I and fluxapyroxad on leaf scald of barley (AUDPC % control); settings: AUDPC-based, one field trial
Protocol: (§1) Commercial standards used in the studies were Proline 275 (275 g ai/L Prothioconazole), applied at 150 g ai/ha, and SiltraXpro (200 g ai/L prothioconazole+60 g ai/[…] bixafen), applied at 195 g ai/ha.
Fungicidal treatments containing the compound of Formula I and fluxapyroxad, either individually or as a two-way mixture, were assessed against scald of barley (RHYNSE) in one field trial. In the trial, fungicidal treatments were applied at B37-39 growth stages of winter barley (HORVW, Maris Otter variety) under natural infection of barley scald (protectant test, approximately 1% infection on leaf 4 at application). All treatments were part of an experimental trial designed as a randomized complete block with four replications.
(§2) Disease severity (percentage of visual diseased foliage on whole plot or leaves) in the field trial was recorded following EPPO PP1/26 guideline prescriptions. Area under the disease progress curve (AUDPC) was calculated for each plot in the trial using the sets of recorded severity data. Relative AUDPC (% control based on AUDPC) was calculated as percent of the nontreated control. […] Statistical analysis was done according to ANOVA and Tukey's test (p=0.10).

[3] = tested on: Pyrenophora teres (PYRNTE); experiment: Field assessment of Compound I and fluxapyroxad on net blotch of barley (AUDPC % control); settings: AUDPC-based, 2 field trials
Protocol: as §1
Fungicidal treatments containing the compound of Formula I and fluxapyroxad, either individually or as a two-way mixture, were assessed against net blotch of barley (PYRNTE) in two separate field trials. In both trials, fungicidal treatments were applied at B31-37 growth stages of winter barley and sprong barley (HORVW, Lomeritt variety; HORVS, Scarlett variety) under natural infection of net blotch (protectant tests, 1% infection on leaf 4 and 10% infection on leaf 6 at application). All treatments were part of an experimental trial designed as a randomized complete block with four replications.
as §2, with “in both” for “in the”, “field trials” for “field trial”, “in both trials” for “in the trial”

[4] = tested on: Puccinia hordei (PUCCHD); experiment: Field assessment of Compound I and fluxapyroxad on rust of barley (AUDPC % control); settings: AUDPC-based, 2 field trials
Protocol: as §1
Fungicidal treatments containing the compound of Formula I and fluxapyroxad, either individually or as a two-way mixture, were assessed against rust of barley (PUCCHD) in two separate field trials. In both trials, fungicidal treatments were applied at B37-39 growth stages of winter barley (Lomeritt variety) under natural infection of barley rust. All treatments were part of an experimental trial designed as a randomized complete block with four replications.
as §2, with “in […]” for “in the”, “field trials” for “field trial”, “in both trials” for “in the trial”

N#Cc1ccc(Oc2ccc(C(F)(F)C(O)(Cn3ncnc3S)c3ccc(F)cc3F)nc2)cc1 (stereo not drawn) [Compound I, 4-((6-(2-(2,4-difluorophenyl)-1,1-difluoro-2-hydroxy-3-(5-mercapto-1H-1,2,4-triazol-1-yl)propyl)pyridin-3-yl)oxy)benzonitrile]
SEPTTR % Control ([1]; rate 50 g ai/ha): 43.9% | SEPTTR % Control ([1]; rate 75 g ai/ha): 50.7% | SEPTTR % Control ([1]; rate 100 g ai/ha): 56.6% | RHYNSE % Control ([2]; rate 75 g ai/ha): 67.2% | RHYNSE % Control ([2]; rate 100 g ai/ha): 61.3% | RHYNSE % Control ([2]; rate 150 g ai/ha): 81.1% | PYRNTE % Control ([3]; rate 75 g ai/ha): 8.66% | PYRNTE % Control ([3]; rate 100 g ai/ha): 23.5% | PYRNTE % Control ([3]; rate 150 g ai/ha): 40.8% | PUCCHD % Control ([4]; rate 75 g ai/ha): 71.0% | PUCCHD % Control ([4]; rate 100 g ai/ha): 75.3% | PUCCHD % Control ([4]; rate 150 g ai/ha): 88.8%

Cn1cc(C(=O)Nc2ccccc2-c2cc(F)c(F)c(F)c2)c(C(F)F)n1 [Fluxapyroxad, 3-(difluoromethyl)-1-methyl-N-(3′,4′,5′-trifluorobiphenyl-2-yl)pyrazole-4-carboxamide]
SEPTTR % Control ([1]; rate 50 g ai/ha): 47.4% | SEPTTR % Control ([1]; rate 75 g ai/ha): 60.9% | SEPTTR % Control ([1]; rate 100 g ai/ha): 66.4% | RHYNSE % Control ([2]; rate 45 g ai/ha): 78.7% | RHYNSE % Control ([2]; rate 62.5 g ai/ha): 77.2% | RHYNSE % Control ([2]; rate 100 g ai/ha): 95.7% | PYRNTE % Control ([3]; rate 45 g ai/ha): 66.5% | PYRNTE % Control ([3]; rate 62.5 g ai/ha): 73.4% | PYRNTE % Control ([3]; rate 100 g ai/ha): 83.2% | PUCCHD % Control ([4]; rate 45 g ai/ha): 49.0% | PUCCHD % Control ([4]; rate 62.5 g ai/ha): 54.5% | PUCCHD % Control ([4]; rate 100 g ai/ha): 68.7%
